In patent publication US7670613B2, “Androgen modulators” (Pfizer Inc., priority 2004, dated 2010):
pIC50: −log10 of the molar value.

Legend:
[1] = target: T1, hAR (Homo sapiens, UniProt P10275); experiment: Competitive binding analysis on baculovirus/Sf9 generated hAR extracts with 3H-DHT tracer; conditions: AR Binding IC50, hAR extract, 1 nM 3H-DHT, one hour at 4° C.; mean of multiple tests
T1 construct: made in house; host or cells: baculovirus/Sf9 insect cells
T1 sequence (P10275 1-920): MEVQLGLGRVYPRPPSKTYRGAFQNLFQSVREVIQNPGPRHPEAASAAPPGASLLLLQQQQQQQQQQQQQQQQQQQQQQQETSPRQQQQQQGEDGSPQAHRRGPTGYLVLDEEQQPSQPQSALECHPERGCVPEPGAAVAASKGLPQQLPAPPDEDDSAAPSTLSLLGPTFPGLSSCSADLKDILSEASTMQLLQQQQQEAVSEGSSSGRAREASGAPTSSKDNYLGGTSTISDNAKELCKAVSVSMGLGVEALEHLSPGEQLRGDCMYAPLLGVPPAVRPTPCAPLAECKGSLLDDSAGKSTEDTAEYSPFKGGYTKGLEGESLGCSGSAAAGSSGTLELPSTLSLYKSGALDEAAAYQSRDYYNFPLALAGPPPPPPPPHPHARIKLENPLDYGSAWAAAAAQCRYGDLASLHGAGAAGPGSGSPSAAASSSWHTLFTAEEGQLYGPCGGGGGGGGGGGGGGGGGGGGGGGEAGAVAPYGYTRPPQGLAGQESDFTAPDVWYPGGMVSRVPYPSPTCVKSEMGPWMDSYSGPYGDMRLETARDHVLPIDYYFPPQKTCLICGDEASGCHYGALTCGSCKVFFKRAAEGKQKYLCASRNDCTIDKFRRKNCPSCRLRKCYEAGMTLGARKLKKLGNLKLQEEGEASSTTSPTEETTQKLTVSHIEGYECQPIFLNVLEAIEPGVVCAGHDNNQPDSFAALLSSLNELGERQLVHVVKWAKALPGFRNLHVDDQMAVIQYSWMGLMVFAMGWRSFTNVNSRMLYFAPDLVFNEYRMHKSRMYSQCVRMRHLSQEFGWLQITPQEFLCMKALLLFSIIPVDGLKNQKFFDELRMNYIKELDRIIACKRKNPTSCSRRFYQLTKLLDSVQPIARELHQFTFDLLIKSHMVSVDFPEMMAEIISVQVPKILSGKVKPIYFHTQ

[2] = test system: male Syrian hamsters; experiment: Animal model for inhibition of sebum production (hamster ear); format: in vivo, Syrian hamster; conditions: topical 3.0 w/v %; for % CE reduction: cholesterol ester vs vehicle control; for % CE reduction / % WE reduction: twice daily, five days a week, 4 weeks, right ear; for Sum of WE & CE: sum of % WE and % CE reduction; for % WE reduction: wax ester vs vehicle control
Experimental: Animal Model for Inhibition of Sebum Production
Luderschmidt et al describes an animal model for testing whether compounds are capable of modulating sebum secretion. Arch. Derm. Res. 258, 185-191 (1977). This model uses male Syrian hamsters, whose ears contain sebaceous glands. The product of Example 14 was screened in this model.
Testing for sebum inhibition was carried out in the following manner. Male Syrian hamsters aged 9 to 10 weeks were introduced into the laboratory environment and acclimated for 2 weeks prior to use in the study. Each group consisted of 5 animals and run in parallel with vehicle and positive controls. Prior to administration, a sufficient quantity each compound was dissolved in 1 mL of a solvent consisting of ethanol, and propylene glycol (70/30% v/v) to achieve a final concentration of 3.0 w/v %.
Animals were dosed topically twice daily, five days a week, for 4 weeks. Each dose consisted of 25 micro liters of vehicle control or drug. The dose was applied to the ventral surfaces of both the right and left ears. All animals were sacrificed approximately 18-24 hours after the final dose. The right ears were collected from each animal and used for sebum analysis.
The ears were prepped for HPLC analysis in the following manner. One 8 mm distal biopsy punch was taken, just above the anatomical “V” mark in the ear to normalize the sample area. The punch was pulled apart. The ventral biopsy surface (the area where the topical dose was directly applied to the sebaceous glands) was retained for testing and the dorsal surface of the biopsy punch was discarded.
Tissue samples were blown with N2 gas and stored at −80° C. under nitrogen until HPLC analysis. In addition to ear samples, an aliquot of each drug and vehicle (at least 250 ul) was also stored at −80° C. for inclusion in the HPLC analysis.
HPLC analysis was carried out on an extract of the tissue sample. Tissue samples were contacted with 3 ml of solvent (a 4:1 admixture of 2,2,4-trimethylpentane and isopropyl alcohol). The mixture was shaken for 15 minutes and stored overnight at room temperature, protected from light. The next morning 1 milliliter of water was added to the sample and shaken for 15 minutes. The sample was then centrifuged at approximately 1500 rpm for 15 minutes. Two ml of the organic phase (top layer) was transferred to a glass vial, dried at 37° C., under nitrogen, for approximately 1 hour, and then lyophilized for approximately 48 hours. The samples were then removed from the lyophilizer and each vial was reconstituted with 600 μl of solvent A (trimethylpentane/tetrahydrofuran (99:1). The samples were then recapped and vortexed for 5 minutes.
200 μl of each sample was then transferred to a pre-labeled 200 μl HPLC vial with 200 μL glass inserts. The HPLC vials were placed in the autosampler tray for the Agilent 1100 series HPLC unit. The Agilent 1100 HPLC system consisted of a thermostated autosampler, a quarternary pump, a column heater, and an A/D interface module. All components were controlled by Agilent ChemStation software. A Waters Spherisorb S3W 4.6×100 mm analytical column was maintained at 30° C. by the Agilent column heater unit. The HPLC autosampler was programmed to maintain the sample temperature at 20 C. throughout the run.
10 uL of each sample was injected in triplicate into the column. Two solvents were used for the solvent gradient. Solvent A was an admixture of trimethylpentane and tetrahydrofuran (99:1). Solvent B was ethylacetate. The gradient utilized is described in the table below: […]
The Sedex 75 Evaporative Light Scattering Detector (ELSD) was operated at 45° C. with a gain of 5, and N2 pressure maintained at 3.1 bar. Analog signal obtained by the instrument was sent to the Agilent A/D interface module where it was converted to a digital output. The conversion was based on a 10000 mAU/volt set point and the data rate was set at 10 Hz (0.03 min). […]

## N#Cc1ccc(O[C@@H]2CCCC[C@H]2C#N)cc1C(F)(F)F (single isomer, unassigned) [Example 72, (trans)-(−)-4-(2-Cyano-cyclohexyloxy)-2-trifluoromethyl-benzonitrile]
[1]
  pIC50: 7.37
[2]
  % CE reduction: 68%
  Sum of WE & CE: 153
  % WE reduction: 85%

## N#Cc1ccc(O[C@@H]2CCCCC2C#N)cc1C(F)(F)F (stereo in doubt) [Example 14, -4-(2-Cyano-cyclohexyloxy)-2-trifluoromethyl-benzonitrile]
[1]
  pIC50: 7.24
[2]
  % CE reduction: 84%
  Sum of WE & CE: 179
  % WE reduction: 95%

## CC1CCCCC1Oc1ccc(C#N)c(C(F)(F)F)c1 (stereo not drawn) [Example 8, 4-(2-Methyl-cyclohexyloxy)-2-trifluoromethyl-benzonitrile]
[1]
  pIC50: 6.97
